Measured values reported in US10653679B2, “Compositions and methods for inhibiting bacterial growth” (priority 2015, dated 2020).
Entries after “also recorded” stand apart in the source; their conditions may differ. Read-outs that look alike come from different tables or passages of the source.

Assays:
PhoPR regulon [1] = assay: microbe, parasite or virus in culture; type: cell-based; conditions: Mycobacterium tuberculosis
Mtb CDC1551(aprA′::GFP) = type: cell-based, Mycobacterium tuberculosis
PhoPR regulon [2] = assay: RNA-seq transcriptional profiling; type: cell-based, Mycobacterium tuberculosis
PhoPR regulon [3] = assay: Semi-quantitative real-time PCR of phoP, aprA and pks2; type: cell-based, Mycobacterium tuberculosis
Esx-1 protein export = assay: Analysis of Esx-1 protein export (Western blot); type: cell-based, Mycobacterium tuberculosis; conditions: Mtb Erdman, Sauton's medium, ETZ 80 μM
PhoPR regulon [4] = assay: cells; type: cell-based, Mycobacterium tuberculosis
[5] = in animals, previously reported, cited from earlier work
WT Mtb CDC1551 = assay: Cytoplasmic pH measurement
[6] = system: Mtb-associated granulomatous pneumonia; assay: Lung histopathology of infected mice; conditions: ETZ 100 mg/kg vs CMC treated animals
Source text: (§1) C57BL/6 mice were infected via the intranasal route with 1000 CFU of the Erdman (aprA′::GFP smyc′::mCherry) dual fluorescent reporter. […] After 4 weeks, the right lung was homogenized and plated for enumeration of the bacterial load and the left lung was fixed in 4% paraformaldehyde before being transferred to 30% sucrose for confocal microscopy and pathology evaluation (FIG. 8). This experiment was repeated and the data from the two independent biological replicates were similar and therefore combined. […] Mice were euthanized by carbon dioxide asphyxiation followed by cervical dislocation.
For histopathology, transverse sections of each lung specimen was fixed in 4% paraformaldehyde for 48 hours, transferred to 50% ethanol for 4 hours, processed routinely, embedded in paraffin, and sectioned at 4 μm, followed by routine hematoxylin and eosin staining.

Mtb lipid synthesis = assay: Analysis of mycobacterial lipids (14C radio-TLC); conditions: 80 μM ETZ
BMDMs = assay: Phagosome acidification (pHrodo labeled beads in BMDMs); conditions: ETZ up to 100 μM, 4 h pre-treatment, 100 minutes
PhoPR regulon [7] = assay: Quantitative single-cell imaging of reporter fluorescence in infected mouse lungs; conditions: ETZ treated lungs, 100 mg/kg oral, 4 weeks
Source text: as §1
PFA fixed mouse lungs were frozen in a 30% sucrose PBS pH 7.4 solution, frozen in a dry ice, ethanol bath, and stored at −80° C. until imaging. At the time of imaging, lungs were thawed and hand-sectioned using a sterile scalpel. Sections were transferred to a microscope slide and 10 μL of ProLong® Gold antifade reagent (Invitrogen) was added. […] Settings for GFP and mCherry fluorescence were held constant through the image acquisition to allow for comparison between samples. For quantification of Mtb reporter fluorescence, bacilli were identified in the mCherry channel and the corresponding sum of GFP fluorescence was measured using the Volocity software package (Perkin Elmer). At least 1500 bacilli were counted across multiple fields of view and lungs.

SMILES: CCOc1ccc2nc(S(N)(=O)=O)sc2c1 [ETZ, 6-ethoxy-1,3-benzothiazole-2-sulfonamide]
- EC50 (PhoPR regulon [1]; 144 h, pH 5.7, read-out: EC50 of inhibition of CDC1551(aprA′::GFP) reporter fluorescence): 5.6 µM
- EC50 (PhoPR regulon [1]; pH 7, read-out: EC50 of inhibition of aprA′::GFP reporter fluorescence): 4.7 µM
- effect on growth (Mtb CDC1551(aprA′::GFP); pH 5.7, across the range of ETZ concentrations tested): mostly unaffected; also recorded: little effect on growth
- effect on growth (Mtb CDC1551(aprA′::GFP); pH 7.0): little effect on growth
- down-regulation of espR and the espACD operon (PhoPR regulon [2]): > 1.5 fold
- down-regulation of mmpL8-pks2 operon (Rv3823c-Rv3825c) (PhoPR regulon [2]; ETZ at acidic pH): ~5 fold
- regulation of phoP gene expression (PhoPR regulon [3]): did not exhibit substantial differential regulation
- down-regulation of aprA (PhoPR regulon [3]; both pH 7.0 and 5.7): > 5 fold
- down-regulation of pks2 (PhoPR regulon [3]; both pH 7.0 and 5.7): > 5 fold
- ESAT-6 and CFP-10 expression (Esx-1 protein export): did not affect
- secretion of ESAT-6 and CFP-10 (Esx-1 protein export): strongly and selectively reduced; also recorded: inhibits the secretion
- secretion of Sec-secreted protein Mpt-32 (Esx-1 protein export): did not alter
- inhibition of reporter GFP fluorescence in infected macrophages (PhoPR regulon [4]): significantly down-regulates
- inhibition at 100 µM (PhoPR regulon [4]; Mycobacterium tuberculosis, BMDM, read-out: inhibition of reporter GFP fluorescence in infected macrophages): > 90%
- drug-related organ lesions ([5]; 100 mg/kg): no observable drug-related organ lesions
- LD50 [5]: ~1000 mg/kg
- half-life [5]: 2.5 to 5.5 h
- acidification of cytoplasm (WT Mtb CDC1551; ETZ 80 μM, 6 days, medium pH 5.7): < 0.1 pH units
- change of cytoplasmic pH (WT Mtb CDC1551; ETZ 80 μM, 6 days, medium pH 7.0): no change
- acidification of cytoplasmic pH (WT Mtb CDC1551; ETZ treated Mtb): slight acidification
- percent lung area affected (Mtb-associated granulomatous pneumonia) [6]: did not have a significant reduction; also recorded: no significant difference
- accumulation of sulfolipid (SL) (Mtb lipid synthesis): not detected; also recorded: lack of accumulation
- phagosome acidification (BMDMs): did not alter phagosome acidification
- Mtb cells in the bottom decile of GFP fluorescence (PhoPR regulon [7]): 49%
